# Assay results published in EP0184291B1, “Polyether antibiotic A80190” (ELI LILLY AND COMPANY, priority 1984, dated 1986).
# Columns and labels:
# [1] = Ion-transport (ionophore) test
# [2] = system: Bacteroides corrodens 1874; assay: Agar-dilution assay, anaerobic bacteria; type: cell-based; conditions: Eikenella corrodens, 24-hour incubation
# Procedure: (§1) One important aspect of the antimicrobial activity of A80190 compounds relates to their activity against anaerobic bacteria. The minimal inhibitory concentrations (MIC's) at which A80190 inhibits various anaerobic bacteria, as determined by standard agar-dilution assay, are summarized in Table VII. End points were read after 24-hour incubation.
# [3] = system: Peptococcus asaccharolyticus 1302; assay: Agar-dilution assay, anaerobic bacteria; type: cell-based; conditions: Peptoniphilus asaccharolyticus, 24-hour incubation
# Procedure: as §1
# [4] = system: Propionibacterium acnes 79; assay: Agar-dilution assay, anaerobic bacteria; type: cell-based; conditions: Cutibacterium acnes, 24-hour incubation
# Procedure: as §1
# [5] = system: Peptostreptococcus intermedius 1624; assay: Agar-dilution assay, anaerobic bacteria; type: cell-based; conditions: 24-hour incubation
# Procedure: as §1
# [6] = system: Peptostreptococcus anaerobius 1428; assay: Agar-dilution assay, anaerobic bacteria; type: cell-based; conditions: 24-hour incubation
# Procedure: as §1
# [7] = system: Clostridium difficile 2994; assay: Agar-dilution assay, anaerobic bacteria; type: cell-based; conditions: Clostridioides difficile, 24-hour incubation
# Procedure: as §1
# [8] = system: Bacteroides melaninogenicus 1856/28; assay: Agar-dilution assay, anaerobic bacteria; type: cell-based; conditions: Prevotella intermedia, 24-hour incubation
# Procedure: as §1
# Petococcus prevoti 1281 = assay: Agar-dilution assay, anaerobic bacteria; type: cell-based; conditions: 24-hour incubation
# Procedure: as §1
# Bacteroides fragilis 111 = assay: Agar-dilution assay, anaerobic bacteria; type: cell-based; conditions: 24-hour incubation
# Procedure: as §1
# [9] = system: Fusobacterium symbiosum 1470; assay: Agar-dilution assay, anaerobic bacteria; type: cell-based; conditions: 24-hour incubation
# Procedure: as §1
# [10] = system: Fusobacterium necrophorum 6054A; assay: Agar-dilution assay, anaerobic bacteria; type: cell-based; conditions: 24-hour incubation
# Procedure: as §1
# [11] = system: Bacteroides thetaiotaomicron 1438; assay: Agar-dilution assay, anaerobic bacteria; type: cell-based; conditions: 24-hour incubation
# Procedure: as §1
# [12] = system: Clostridium septicum 1128; assay: Agar-dilution assay, anaerobic bacteria; type: cell-based; conditions: 24-hour incubation
# Procedure: as §1
# [13] = system: Eubacterium aerofaciens 1235; assay: Agar-dilution assay, anaerobic bacteria; type: cell-based; conditions: Collinsella aerofaciens, 24-hour incubation
# Procedure: as §1
# [14] = system: Bacteroides fragilis 1936B; assay: Agar-dilution assay, anaerobic bacteria; type: cell-based; conditions: 24-hour incubation
# Procedure: as §1
# [15] = system: Bacteroides fragilis 1877; assay: Agar-dilution assay, anaerobic bacteria; type: cell-based; conditions: 24-hour incubation
# Procedure: as §1
# [16] = system: Bacteroides melaninogenicus 2736; assay: Agar-dilution assay, anaerobic bacteria; type: cell-based; conditions: 24-hour incubation
# Procedure: as §1
# [17] = system: Bacteroides vulgatis 1211; assay: Agar-dilution assay, anaerobic bacteria; type: cell-based; conditions: 24-hour incubation
# Procedure: as §1
# mosquito larvae = assay: Insecticidal activity; type: in vivo; conditions: read-out: active at levels as low as
# Excerpt: (§2) The A80190 compounds are also useful as insecticides and acaricides. For example, A80190 is active against the following insects as levels as low as the level indicated in parenthesis: mosquito larvae (<50 ppm), blowfly larvae (35 ppm), adult housefly (35 ppm), and Mexican bean beetle and southern armyworm (<100 ppm). A80190 is also active against mites such as two-spotted spider mite when applied at a rate as low as 25 ppm.
# southern armyworm = assay: Insecticidal activity; type: in vivo; conditions: Spodoptera eridania; read-out: active at levels as low as
# Excerpt: as §2
# adult housefly = assay: Insecticidal activity; type: in vivo; conditions: Musca domestica; read-out: active at levels as low as
# Excerpt: as §2
# blowfly larvae = assay: Insecticidal activity; type: in vivo; conditions: read-out: active at levels as low as
# Excerpt: as §2
# Mexican bean beetle = assay: Insecticidal activity; type: in vivo; conditions: Epilachna varivestis; read-out: active at levels as low as
# Excerpt: as §2
# [18] = system: Clostridium perfringens 81; assay: microbe, parasite or virus in culture; type: cell-based; conditions: Clostridium perfringens, 81, 24 h
# Caenorhabditis elegans = assay: Anthelmintic activity; type: in vivo; conditions: read-out: active at levels as low as
# Excerpt: The A80190 compounds are also anthelmintic agents. For example, A80190 is active against Caenorhabditis elegans at levels as low as 20 ppm.
# Eimeria tenella = assay: In vitro tissue culture anticoccidial screen; type: cell-based; conditions: Concentration 5 µg/ml
# Excerpt: Anticoccidial activity is an important property of the A80190 compounds. Table VIII summarizes the results of an in vitro tissue culture screen of A-80190 compounds vs. Eimeria tenella.
# Micrococcus luteus = assay: Disc-diffusion method; type: cell-based; conditions: 6-mm pads dipped in 1 mg of compound per ml, read-out: Zone of Inhibition (mm diameter)
# Procedure: (§3) The inhibitory activity of A80190 is illustrated in Table VI. Activity was measured by the conventional disc-diffusion method (6-mm pads were dipped in solutions containing 1 mg of compound per ml of solution; pads were placed on agar plates seeded with test organism).
# Staphylococcus aureus = assay: Disc-diffusion method; type: cell-based; conditions: 6-mm pads dipped in 1 mg of compound per ml, read-out: Zone of Inhibition (mm diameter)
# Procedure: as §3
# Mycobacterium avium = assay: Disc-diffusion method; type: cell-based; conditions: 6-mm pads dipped in 1 mg of compound per ml, read-out: Zone of Inhibition (mm diameter)
# Procedure: as §3
# Candida albicans = assay: Disc-diffusion method; type: cell-based; conditions: 6-mm pads dipped in 1 mg of compound per ml, read-out: Zone of Inhibition (mm diameter)
# Procedure: as §3
# Bacillus subtilis = assay: Disc-diffusion method; type: cell-based; conditions: 6-mm pads dipped in 1 mg of compound per ml, read-out: Zone of Inhibition (mm diameter)
# Procedure: as §3
# [19] = system: Saccharomyces pastorianus; assay: Disc-diffusion method; type: cell-based; conditions: 6-mm pads dipped in 1 mg of compound per ml, read-out: Zone of Inhibition (mm diameter)
# Procedure: as §3
# Neurospora crassa = assay: Disc-diffusion method; type: cell-based; conditions: 6-mm pads dipped in 1 mg of compound per ml, read-out: Zone of Inhibition (mm diameter)
# Procedure: as §3
# pKa determination = type: physicochemical; conditions: 66% aqueous dimethylformamide; free acid form
# Excerpt: Antibiotic A80190 has been assigned structure 1 based on X-ray crystallographic studies.
# Solubility = type: physicochemical
smiles,measurement,setting,value
CC[C@@H](O)[C@]1(C)C[C@H](C)[C@@](O)([C@H]2C[C@H](C)[C@H]([C@]3(C)C[C@@H](O[C@H]4CC[C@H](OC)[C@@H](C)O4)[C@H]([C@@H]4CC[C@@]5(O[C@H]([C@@H](C)[C@@H](OC)[C@H](C)C(=O)O)[C@H](C)[C@@H](OC)[C@H]5C)O4)O3)O2)O1 [Example A80190],"ionophorous effect, comparison of cations",[1]; 0.2 µg/ml concentration,even greater ionophorous effect with Cs⁺ than with Na⁺
same,ionophorous activity,[1]; 0.5 µg/ml concentration,showed ionophorous activity
same,"ionophorous activity, comparison of cations",[1]; 0.5 µg/ml concentration,"its activity with Na⁺, K⁺ and Rb⁺ was better than that with Cs⁺ or Li⁺"
same,MIC,[2],> 128 µg/mL
same,MIC,[3],1 µg/mL
same,MIC,[4],1 µg/mL
same,MIC,[5],1 µg/mL
same,MIC,[6],1 µg/mL
same,MIC,[7],< 0.5 µg/mL
same,MIC,[8],> 128 µg/mL
same,MIC,Petococcus prevoti 1281,< 0.5 µg/mL
same,MIC,Bacteroides fragilis 111,> 128 µg/mL
same,MIC,[9],8 µg/mL
same,MIC,[10],16 µg/mL
same,MIC,[11],> 128 µg/mL
same,MIC,[12],< 0.5 µg/mL
same,MIC,[13],< 0.5 µg/mL
same,MIC,[14],> 128 µg/mL
same,MIC,[15],> 128 µg/mL
same,MIC,[16],> 128 µg/mL
same,MIC,[17],16 µg/mL
same,minimal effective concentration,mosquito larvae,< 50 µg/mL
same,minimal effective concentration,southern armyworm,< 100 µg/mL
same,minimal effective concentration,adult housefly,35 µg/mL
same,minimal effective concentration,blowfly larvae,35 µg/mL
same,minimal effective concentration,Mexican bean beetle,< 100 µg/mL
same,MIC,[18],< 0.5 µg/mL
same,minimal effective concentration,Caenorhabditis elegans,20 µg/mL
same,Activity vs. Eimeria tenella In Vitro,Eimeria tenella,C^a
same,zone of inhibition at 1000 µg/mL,Micrococcus luteus,20 mm
same,zone of inhibition at 1000 µg/mL,Staphylococcus aureus,17 mm
same,zone of inhibition at 1000 µg/mL,Mycobacterium avium,21 mm
same,zone of inhibition at 1000 µg/mL,Candida albicans,14 mm
same,zone of inhibition at 1000 µg/mL,Bacillus subtilis,23 mm
same,zone of inhibition at 1000 µg/mL,[19],10 mm
same,zone of inhibition at 1000 µg/mL,Neurospora crassa,14 mm
same,pKa,pKa determination,6.2
same,Solubility,"Solubility; lower alcohols such as methanol, ketones such as acetone, esters such as ethyl acetate, halogenated hydrocarbons such as chloroform, diethyl ether, benzene, toluene, warm hexane",soluble
same,Solubility,Solubility; water,Insoluble
